The values below come from patent publication US5633277A, “Sulfonamide aminomethylene derivatives as immunosuppressants” (Miles Inc., priority 1995, dated 1997).

In general, IC50 refers to the concentration that inhibits the measured activity by half. A lower IC50 goes with higher potency.

Some results are limits rather than exact numbers.

Chain of FKBP (P62942 whole entry): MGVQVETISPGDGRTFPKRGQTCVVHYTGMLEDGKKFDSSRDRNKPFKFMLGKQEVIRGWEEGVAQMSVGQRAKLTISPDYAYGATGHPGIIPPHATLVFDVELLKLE

The first test concerns the target FKBP (Homo sapiens, UniProt P62942). The experiment in a line: PPIase Inhibition Assay. Type of test: biochemical.
Settings: not given
As for the experimental part:
1) Inhibition of PPlase Activity
This assay follows in principle the procedure described in Kofron et al., 1991, Biochemistry 30:6127. The three main reagents used are PPIase, a substrate for PPIase, and a selected inhibitor compound of the present invention. The basic principle behind this assay is the conversion of the cis isomer of the substrate to the trans form, which conversion is catalyzed by PPIase. Essentially, inhibition of this PPIase activity is measured for the selected compounds. A peptide chymotrypsin substrate containing a proline in the P2 position is only cleaved by chymotrypsin when the Phe-Pro bond is in the trans isomeric configuration. In the presence of excess chymotrypsin, all of the trans peptide isomers are cleaved within approximately five seconds, leaving only cis forms.
The cis peptide will spontaneously convert to the trans isomer at a slow rate. The cis to trans conversion is catalyzed by isomerases at a much faster rate than this spontaneous conversion. Proteins with PPIase activity are examples of such isomerases. After isomerization, the peptide is cleaved by chymotrypsin releasing p-nitroaniline which can be monitored at 390 nm. The rate of release is then calculated using a first order rate plus offset equation utilizing the ENZFITTER program (Leatherbarrow, BIOSOFT, Cambridge, United Kingdom).
In a plastic cuvette are added 950 ul of ice cold assay buffer (25 mM HEPES, pH 7.8, 100 mM NaCl), 10 uL of FKBP (2.5 uM in 10 mM Tris-Cl pH 7.5,100 mM NACl, 1 mM dithiothreitol), 25 ul of chymotrypsin (50 mg/ml in 1 mM HCl) and 10 ul of the test compound at various concentrations in dimethyl sulphoxide. The reaction is initiated by addition of 5 ul of substrate (Succinyl-Ala-Phe-Pro-Phe-para-nitroanilide, 5 mg/ml in 235 mM LiCl in trifluoroethanol).
The absorbance at 390 nm versus time is monitored for 90 sec using a Beckman DU70 spectrophotometer. The absorbance versus time data files are transferred to an IBM XT computer and the rate constants determined using the commercial Enzfitter program. For each set of data, the uncatalyzed rate of conversion is measured and the uninhibited enzymatic rate determined. The data are expressed as % Inhibition and are calculated as follows: [formula] where kobs is the rate in the presence of a selected test compound, kuncat is the rate in the absence of enzyme, and kuninh is the rate in the presence of enzyme and absence of inhibitor. Data are plotted as percent inhibition versus concentration of inhibitor. The values of the concentration of inhibitor required for 50% inhibition of enzyme activity (IC50) were determined by nonlinear least squares regression analysis.
As to `CC(C)C[C@@H](CN1CCC[C@H]1C(=O)NCCCCc1ccccc1)NS(=O)(=O)CC12CCC(CC1=O)C2(C)C` (single isomer, unassigned) [Example 7], the IC50 was above 5 µM.
On the same count and under the same terms, the value for `CC(C)C[C@@H](CN1CCC[C@H]1C(=O)NCCCCc1ccccc1)NS(C)(=O)=O` [Example 1, 1-[2-(S)-Methanesulfonylamino-4-methylpentyl]-L-proline 4-Phenylbutylamide] was 3.5 µM.
Still for that read-out and setting: the value for `Cc1ccc(S(=O)(=O)N[C@@H](CC(C)C)CN2CCC[C@H]2C(=O)NCCCCc2ccccc2)cc1` [Example 2, 1-[2-(S)-(Toluene-4-sulfonylamino)-4-methylpentyl]-L-proline 4-Phenylbutylamide] was above 5 µM; that for `CC(C)C[C@@H](CN1CCC[C@H]1C(=O)NCCCCc1ccccc1)NS(=O)(=O)c1cccc2cccnc12` [Example 3, 1-[2-(S)-(Quinoline-8-sulfonylamino)-4-methylpentyl]-L-proline 4-Phenylbutylamide] was above 5 µM.
Same read-out and setting: the value for `CC(=O)Nc1nc(C)c(S(=O)(=O)N[C@@H](CC(C)C)CN2CCC[C@H]2C(=O)NCCCCc2ccccc2)s1` [Example 4, 1-[2-(S)-(2-Acetylamino-4-methyl-S-thiazolesulfonylamino)-4-methylpentyl]-L -proline 4-Phenylbutylamide] was above 5 µM; that for `CC(C)C[C@@H](CN1CCC[C@H]1C(=O)NCCCCc1ccccc1)NS(=O)(=O)c1cccs1` [Example 5, 1-[2-(S)-(Thiophene-2-sulfonylamino)-4-methylpentyl]-L-proline 4-Phenylbutylamide] was above 5 µM; that for `CC(C)C[C@@H](CN1CCC[C@H]1C(=O)NCCCCc1ccccc1)NS(=O)(=O)/C=C/c1ccccc1` [Example 6, 1-[2-(S)-(2-phenyl-ethenesulfonylamino)-4-methylpentyl]-L-proline 4-Phenylbutylamtde] was above 5 µM.
In turn, `CC(C)C[C@@H](CN1CCC[C@H]1C(=O)NCCCCc1ccccc1)NS(=O)(=O)c1ccc(-c2ccon2)s1` [Example 8, 1-[2-(S)-(5 - [Isoxazol-25-yl]-thiophene-2-sulfonylamino)-4-methylpentyl]-L-proline 4-Phenylbutylamide] displayed a 50% inhibitory concentration (IC50) above 5 µM.
Same read-out and setting: then `CC(C)C[C@@H](CN1CCC[C@H]1C(=O)NCCCCc1ccccc1)NS(=O)(=O)c1c(C(C)C)cc(C(C)C)cc1C(C)C` [Example 10, 1-[2-(S)-(2',4',6'-Triisopropylbenzenesulfonylamino)-4-methylpentyl]-L-proline 4-Phenylbutylamide], with above 5 µM; and `CC[C@H](C)[C@H](NC(=O)[C@@H]1CCCCN1C[C@@H](NS(C)(=O)=O)[C@@H](C)CC)C(=O)NCc1ccccc1` [Example 11], with above 5 µM.

For the next test, the system named is Lewis rats sensitized with Complete Freund's adjuvant. Nature of the test: Adjuvant Arthritis Model in the Rat. Type of test: in vivo. The following applies: uninjected hind paw, day 0 to day 16; 10 mg/kg/dose i.p. The text has this:
Rats sensitized to mycobacterial antigens in Complete Freund's Adjuvant can develop a rapidly destructive adjuvant arthritis. Adjuvant arthritis appears to be an autoimmune disease. Thus, T lymphocytes from immunized donors can transfer the disease to naive recipients (Pearson and Wood, 1964, J. Exp. Med. 120:547.) and susceptibility is controlled, at least in part, by class II MHC genes (Batisto, et al. 1982, Arthritis Rheum. 25:1194).
Adjuvant Arthritis Model in the Rat
Complete Freund's adjuvant is made by supplementing extra heavy mineral oil with 10 mg/ml heat killed Mycobacterium butyricum (Difco Laboratories, Detroit, Mich.). Lewis rats (Charles Rivers, Willmington, Mass.) are given a 0. 1 ml injection of adjuvant (1 mg/animal mycobacterium) subcutaneously into the right hind footpad. In the injected foot, an acute inflammatory reaction occurs which is characterized by erythema, edema and a predominantly neutrophilic cell infiltrate. This is followed by edema in the uninjected contralateral foot by days 10-12. This secondary response is accompanied by a predominantly mononuclear cell infiltrate, indicating the presence of cell-mediated immunity.
The immune response is quantitated by measuring the change in ankle diameter of the uninjected hind paw from day 0 to day 16 post sensitization. This is accomplished using a hand-held dial micrometer. […]
Consider `CC(C)C[C@@H](CN1CCC[C@H]1C(=O)NCCCCc1ccccc1)NS(C)(=O)=O` [Example 1, 1-[2-(S)-Methanesulfonylamino-4-methylpentyl]-L-proline 4-Phenylbutylamide], for which the “Δ Ankle Diameter” value is recorded as 1.6 ± 0.6 mm.

Still in this test, the particulars now being: uninjected hind paw, day 0 to day 16; 10 mg/kg/dose i.p.; vs vehicle control.
For the compound `CC(C)C[C@@H](CN1CCC[C@H]1C(=O)NCCCCc1ccccc1)NS(C)(=O)=O` [Example 1, 1-[2-(S)-Methanesulfonylamino-4-methylpentyl]-L-proline 4-Phenylbutylamide], the “% Inhibition (of ankle swelling)” value is 51%.
